# Data from US7094581B2, “Hyaluronan synthases and methods of making and using same” (The Board of Regents of the University of Oklahoma, priority 1998, dated 2006).
# Read-outs that look alike come from different tables or passages of the source.
# Tests used:
# [1] = molecular target: T1, spHAS (Streptococcus pyogenes serotype M6, UniProt Q5X9A9); assay: Effect of sulfhydryl reagents on spHAS activity in E. coli membranes; assay type: biochemical; details: E. coli membranes with spHAS-H6, 4° C. 1 h, 5 mM NEM, 5 mM IAA, 0.5 mM 5,5′-dithiobis-(2-nitrobenzoic acid), 0.05 mM methylmethanethiosulfonate, 10 mM sodium arsenite
# T1 construct: made in house; host or cells: E. coli SURE cells (isolated membranes)
# T1 sequence (Q5X9A9 1-419): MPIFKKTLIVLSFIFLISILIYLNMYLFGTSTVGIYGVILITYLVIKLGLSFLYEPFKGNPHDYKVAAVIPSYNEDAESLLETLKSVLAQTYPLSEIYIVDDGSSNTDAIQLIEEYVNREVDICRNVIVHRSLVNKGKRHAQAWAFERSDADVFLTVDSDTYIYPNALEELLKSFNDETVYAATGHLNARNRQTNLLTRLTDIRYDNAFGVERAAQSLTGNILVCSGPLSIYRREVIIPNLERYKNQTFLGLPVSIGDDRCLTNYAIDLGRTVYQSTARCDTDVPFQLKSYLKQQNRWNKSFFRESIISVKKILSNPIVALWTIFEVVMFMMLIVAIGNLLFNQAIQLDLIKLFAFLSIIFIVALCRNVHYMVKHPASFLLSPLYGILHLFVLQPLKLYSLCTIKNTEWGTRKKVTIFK
# Description: SeHAS is the smallest HAS protein (417 amino acids) and contains four Cys residues. […] To explore the possible role of cysteines in the function of HAS, the activities of seHAS and spHAS were assayed in the presence of different sulfhydryl reagents (Table II). […] The inhibition of each HAS by NEM was examined in more detail with respect to time of incubation and NEM concentration (FIG. 2).
# E. coli SURE cells transformed with plasmids containing various seHAS mutants were grown in LB medium with vigorous shaking at 32° C. to A600 ˜0.8 and induced with 1 mM isopropyl-β-thiogalactoside for 3 h. Cells were harvested and membranes were prepared as described previously. The kinetic constants for HAS were determined at 37° C. in 100 μl of 50 mM sodium and potassium phosphate, pH 7.0, with 20 mM MgCl2, 1 mM DTE, 240 μM UDP-GIcUA, 0.7 μM UDP-[^14C]GIcUA and 0.6–1.0 mM UDP-GIcNAc. in 100 μl of 25 mM sodium and potassium phosphate, pH 7, containing 50 mM NaCl, 20 mM MgCl2, 1 mM dithiothreitol, 1 mM UDP-GIcUA, 0.68 μM UDP-GIcUA and 1 mM UDP-GIcNAc. Some assays also contained 0.1 mM EDTA and 20% glycerol (v/v). To initiate the enzyme reaction, ˜0.5–40 μg of membrane protein was added and the mixtures were gently shaken in a MicroMixer X-36 (Tiatec) at 30° C. for 1–2 h. Reactions were terminated by the addition of SDS to a final concentration of 2% (w/v). The incorporation of radioactive [^14C]GIcUA was determined by descending paper chromatography and the Km and Vmax values were determined as described by Tlapak-Simmons et al (1999b). Data were analyzed by the methods of Michaelis-Menton or Hill. Protein content was determined by the method of Bradford using bovine serum albumin as the standard. All Cys-mutant or sulfhydryl-treated seHAS samples were assayed in duplicate or triplicate using two or three independent membrane preparations. […] All enzyme assays were performed under conditions that were linear with respect to time and protein concentration.
# Stock solutions (10–100 mM) of NEM, IAA or other sulfhydryl reagents were made in PBS, pH 7.0. Suspensions of membranes containing seHAS or spHAS were incubated with 0–5 mM of the sulfhydryl reagent at 4° C. and the reactions were stopped by adding DTE to a final concentration of 10 mM. The membranes were then assayed for HAS activity as described above.
# [2] = system: wild-type seHAS; assay: Utilization of UDP-GlcUA and UDP-GlcNAc by wild-type seHAS after NEM or sodium arsenite treatment; assay type: biochemical, Streptococcus equisimilis; details: membranes 4° C. 1 h with 5 mM NEM or 10 mM sodium arsenite
# Description: FIG. 3. Effect of NEM or sodium arsenite treatment on the utilization of UDP-GIcUA and UDP-GIcNAc by wild-type seHAS. E. coli membranes containing seHAS protein were incubated at 4° C. for 1 h in PBS containing 5 mM NEM or 10 mM Sodium Arsenite (SodArs), and the control membranes were incubated with PBS alone. Michaelis-Menten constants (Km) were calculated from the activities of seHAS at varying concentrations of UDP-GIcUA or UDP-GIcNAc.
# Modification of the protein by NEM could affect any one or several of the six discrete functions that HAS must perform in order to synthesize HA. In order to determine if one of the nucleotide-sugar binding sites was affected by NEM, we examined the UDP-GIcUA and UDP-GIcNAc saturation profiles for treated and untreated seHAS (FIG. 3 and Table III).
# E. coli SURE cells transformed with plasmids containing various seHAS mutants were grown in LB medium with vigorous shaking at 32° C. to A600 ˜0.8 and induced with 1 mM isopropyl-β-thiogalactoside for 3 h. Cells were harvested and membranes were prepared as described previously. The kinetic constants for HAS were determined at 37° C. in 100 μl of 50 mM sodium and potassium phosphate, pH 7.0, with 20 mM MgCl2, 1 mM DTE, 240 μM UDP-GIcUA, 0.7 μM UDP-[^14C]GIcUA and 0.6–1.0 mM UDP-GIcNAc. in 100 μl of 25 mM sodium and potassium phosphate, pH 7, containing 50 mM NaCl, 20 mM MgCl2, 1 mM dithiothreitol, 1 mM UDP-GIcUA, 0.68 μM UDP-GIcUA and 1 mM UDP-GIcNAc. Some assays also contained 0.1 mM EDTA and 20% glycerol (v/v). To initiate the enzyme reaction, ˜0.5–40 μg of membrane protein was added and the mixtures were gently shaken in a MicroMixer X-36 (Tiatec) at 30° C. for 1–2 h. Reactions were terminated by the addition of SDS to a final concentration of 2% (w/v). The incorporation of radioactive [^14C]GIcUA was determined by descending paper chromatography and the Km and Vmax values were determined as described by Tlapak-Simmons et al (1999b). Data were analyzed by the methods of Michaelis-Menton or Hill. Protein content was determined by the method of Bradford using bovine serum albumin as the standard. All Cys-mutant or sulfhydryl-treated seHAS samples were assayed in duplicate or triplicate using two or three independent membrane preparations. Results are presented as the mean±standard errors. All enzyme assays were performed under conditions that were linear with respect to time and protein concentration. None of the seHAS variant enzymes were unstable under the conditions employed.
compound,measurement,setting,value
CCN1C(=O)C=CC1=O [N-ethylmaleimide],"Inhibition of HAS Activity (% relative to control), spHAS",[1],60 ± 3.5%
same,"Inhibition of HAS Activity (% relative to control), spHAS",[1]; listed as NEM,60–70%
same,"Vmax of treated wild-type seHAS, UDP-GlcNAc",[2],7.3 ± 2.2 nmol/µg/h
same,"Vmax of treated wild-type seHAS, UDP-GlcUA",[2],7.3 ± 2.2 nmol/µg/h
same,Km,[2]; read-out: Km for UDP-GlcNAc of treated wild-type seHAS,82 ± 17 µM
same,Km,[2]; read-out: Km for UDP-GlcUA of treated wild-type seHAS,57 ± 5 µM
